# Patent publication US8729048B2, “Methods and materials for assessing responsiveness to PARP inhibitors and platinating agents” (Mayo Foundation for Medical Education and Research, priority 2011, dated 2014)
# How the values were obtained:
# [1] = test system: MMEJ activity in PEO4 cells; test: Microhomology mediated end-joining assay (MMEJ), PEO4; type: cell-based; conditions: 72 hours
# From the text: FIG. 11. PARP inhibition fails to induce microhomology-mediated end-joining (MMEJ). (A) Schematic of the reporter substrate used to assay for MMEJ activity. Cleavage of pDVG94 with EcoRV and AfeI creates a blunt-ended linearized substrate, with identical 6-bp ends. Direct joining by NHEJ will result in maintenance of both repeats, but MMEJ will excise one repeat, introducing a new BstXI site. PCR across recircularized substrate produces a product of 180 bp, which can be cut into 120 and 60 bp fragments if the BstXI site was created. This figure is adapted from a figure provided elsewhere (Verkaik et al., Eur. J. Immunol., 32:701-709 (2002)). (B) and (C) Agarose gel from a representative MMEJ assay. PEO1 (B, lanes 1-10) and PEO4 (C) cells were treated with increasing concentrations of ABT-888 following transfection with linearized pDVG94. The size of the initial PCR product (180 bp) as well as BstXI cleaved products (120 bp and 60 bp) are indicated. As a positive and negative control, a cell line previously documented to undergo MMEJ (Lou et al., J. Biol. Chem., 279:46359-46362 (2004)), M059J (B, lanes 11 and 12), and a MMEJ-negative line, M059J+DNA-PKcs (B, lanes 13 and 14) were used. Images were captured from one gel and cut to create two panels. […]
# [2] = test system: BRCA2-positive PEO4 cells; test: Clonogenic assay, PEO4; type: cell-based; conditions: 72 hours
# Procedure: FIG. 5. NHEJ is a major contributor to PARP inhibitor effects in BRCA2-deficient cells. (A) Western blots showing knockdown of Ku80 in PEO1 and PEO4 cells. (B) Clonogenic survival of PEO1 and PEO4 cells from (A), which were treated with the indicated ABT-888 concentration for 72 hours, washed, and allowed to form colonies. (C) Western blots following treatment with siRNA targeting luciferase (control), Ku80, PARP1, or both Ku80 and PARP1. (D) Clonogenic viability of PEO 1 and PEO4 cells from (C). Following knockdown, cells were plated onto triplicate plates and allowed to form colonies. (E) Clonogenic survival of PEO1 cells following Artemis knockdown. After treatment with the indicated siRNA, plates were treated with indicated concentration of ABT-888 for 72 hours, washed, and allowed to form colonies. Inset, Western blots showing knockdown using luciferase (control) or Artemis siRNAs in PEO1 cells. (F) Clonogenic survival of PEO1 and PEO4 cells treated for 72 hours with ABT-888 in combination with diluent or 500 nM DNA-PKi. All results are reported as means of triplicate plates±SEM, and are representative of 3 independent experiments.
# Colony formation assays were performed on siRNA-transfected PEO1 and PEO4 cells 48 hours after the second transfection. Cells were trypsinized and plated at 750 cells/plate in triplicate 60-mm dishes containing medium A, allowed to grow 10-14 days, and stained with Coomassie Brilliant Blue. Colonies containing ≧50 cells were scored manually. To assess methyl methanesulfonate (MMS) sensitivity, PEO1 or PEO4 cells were incubated for 48 hours after the second siRNA treatment, plated onto 60-mm dishes, allowed to adhere for 4 hours, exposed to the indicated concentration of MMS (Sigma-Aldrich) for 1 hour, washed with sterile RPMI 1640, and allowed to grow into colonies in medium A. For drug treatment, cells (without siRNA) were allowed to adhere for 4-6 hours, then treated with the indicated concentrations of ABT-888 and/or AZ12594248 for 72 hours. […]
smiles,measurement,setting,value
C[C@]1(c2nc3c(C(N)=O)cccc3[nH]2)CCCN1 [ABT-888],induction of MMEJ,[1],not detected
same,clonogenic survival,[2],resistant to the effects of ABT-888
same,clonogenic survival with ABT-888 after Ku80 knockdown,[2]; Ku80 siRNA,unaffected by Ku80 siRNA
